Results as given in publication PMC6862080, “Blood Compatibility—An Important but Often Forgotten Aspect of the Characterization of Antimicrobial Peptides for Clinical Application” (International Journal of Molecular Sciences, 2019).
Where two headings read alike, the source gives them in different places. Peptide text beside a SMILES is read from it. * marks the point of attachment. Myristoyl = CCCCCCCCCCCCCC(=O)*

Tests used:
human leukocytes = experiment: Cytotoxicity on leukocytes in whole blood, flow cytometry (7-AAD); assay type: cell-based; conditions: citrate anticoagulated whole blood, 128 μg/mL, 37 °C, 120 min / 60 min, CD45, flow cytometry, n = 3
Protocol: The measurement of the membrane destabilization of leukocytes by AMPs was carried out by flow cytometry. […] Whole blood without AMPs or antibiotics was used as a control. After incubation, the proportion of apoptotic and dead cells was determined by flow cytometry. To achieve this, blood samples were diluted 1:100 with 0.01 M phosphate buffered saline and centrifuged at 300 g for 10 min. The supernatant was removed, and cells were stained with 10 μL CD45 pacific blue (leukocyte marker; Beckman coulter, Brea, CA) and 10 μL 7-AAD (a marker for dead cells; Sigma-Aldrich, Steinheim, Germany) for 15 min at room temperature in the dark. After incubation, 1.8 mL lysis buffer (1:10 dilution in distilled water) was added, mixed, and incubated for 10 min at room temperature in the dark. This was followed by two washing steps (2300 g, 5 min, room temperature) and the cells were resuspended in a final volume of 200 μL 0.01 M PBS for measurement. Flow cytometry was performed using a Gallios flow cytometer (Beckman Coulter, Brea, CA, USA) equipped with 405 nm, 488 nm, and 638 nm lasers and the Kaluza Analysis Software (Beckman Coulter, Brea, CA, USA), which was used for measurement and data analysis. Blood cells which were incubated in 70% methanol before staining served as the positive control and blood cells without any additives were used as the negative control.

erythrocyte membranes [1] = experiment: Hemolysis in RBC suspended in PBS (Kahn method); assay type: cell-based, human
Protocol: (§1) Hemolysis was tested with fresh citrate anticoagulated blood from healthy volunteers as well as with blood cells which were suspended in phosphate buffered saline (10 mM pH 7.4). Afterwards, 100 μL AMP solution was added to 500 μL blood to finally achieve AMP concentrations of 8, 32, and 128 μg/mL. As the negative and positive control, 100 μL PBS buffer and 100 μL 12% Triton-X buffer was added to 500 μL blood, respectively. After incubation on an orbital shaker for 60 min at 37 °C, the cells were removed by centrifugation and 100 μL of the supernatant were transferred to a 96 well microplate for hemolysis measurement. The hemolysis was calculated from the extinction at the wavelengths 562, 578, and 598 nm with a Synergy 2 microplate reader (BioTek, Winooski, VT, USA) according to the method published by Kahn.

platelets [2] = experiment: Platelet activation, platelet count in citrate anticoagulated PRP; assay type: cell-based, human; conditions: 128 μg/mL, 2 h, 37 °C, Sysmex analyzer, n = 3
Protocol: (§2) Since it was observed that some AMPs are able to activate the plasmatic coagulation system of heparinized and citrate anticoagulated blood, the influence of this peptides on platelets was investigated. For this purpose, fresh heparinized and citrated blood were collected from three donors. The blood was centrifuged at 500 g for 5 min and platelet rich plasma (PRP) was obtained. The PRP was incubated at 37 °C for 2 h with 128 μg/mL AMP, PMB, and LL-37. PRP without any additives served as the control. After incubation, the platelet number was determined by a Sysmex Automated Hematology Analyzer KX-21-N (Kobe, Japan). In addition, the PRP samples were prepared for SEM to visualize the morphology of the thrombocytes. After incubation, 10 μL PRP were diluted with 990 μL PBS (0.01 M) and filtered through a 0.2 μm membrane (Membrane Filter Isopore 0.2 μm, Merck, Darmstadt, Germany). The platelets were retained on the membrane, washed with 1 mL PBS, and fixed with 1 mL glutaraldehyde solution (2.5% glutaraldehyde in physiological saline solution). After an incubation time of 60 min, the samples were dehydrated using a series of ethanol (30%, 50%, 60%, 70%, 80%, 90%, and 100%). Afterwards the samples were dried overnight at RT, sputtered with gold and visualized with a scanning electron microscope (FLEXSem 1000, Hitachi, Japan).

erythrocyte membranes [3] = experiment: Hemolysis in whole blood (Kahn method); assay type: cell-based, human
Protocol: as §1

platelets [4] = experiment: Platelet activation, platelet count in heparin anticoagulated PRP; assay type: cell-based, human; conditions: 128 μg/mL, 2 h, 37 °C, Sysmex analyzer, n = 3
Protocol: as §2

plasmatic coagulation [5] = experiment: Clotting batch test in citrate plasma; assay type: biochemical, human; on Clotting of citrate plasma, Peptide Concentration 128 μg/mL: key: −: no clotting observed, no D-dimers and normal fibrinogen level; +: clotting observed, high D-dimer level, no detectable fibrinogen serum level; on Clotting of citrate plasma, Peptide Concentration 256 μg/mL: key: −: no clotting observed, no D-dimers and normal fibrinogen level; +: clotting observed, high D-dimer level, no detectable fibrinogen serum level; on Clotting of citrate plasma, Peptide Concentration 32 μg/mL: key: −: no clotting observed, no D-dimers and normal fibrinogen level; +: clotting observed, high D-dimer level, no detectable fibrinogen serum level; on Clotting of citrate plasma, Peptide Concentration 8 μg/mL: key: −: no clotting observed, no D-dimers and normal fibrinogen level; +: clotting observed, high D-dimer level, no detectable fibrinogen serum level
Protocol: Since the acylated LF11-322 peptides cause plasmatic coagulation of citrate anticoagulated plasma, separate clotting experiments were performed with this peptide group. The aim was to check whether the coagulation activation is dependent on the AMP concentration and on the acyl chain length. […] Plasma without additives served as the negative control, whereas plasma spiked with CaCl2/MgCl2 (500/250 mM) solution to restore the physiological calcium and magnesium level in plasma was used as the positive control. Incubation was performed at 37 °C for 60 min. […] In order to ensure that the measured turbidity of the plasma is caused by fibrin formation, the fibrinogen and D-Dimer concentrations were additionally determined. During plasmatic clotting, the fibrinogen level decreases and the D-Dimer level in serum increases. Both were analyzed on a Sysmex CA560 with the corresponding reagents (Siemens Healthineers, Erlangen, Germany).

platelets [6] = experiment: SEM imaging of platelet morphology in PRP; assay type: cell-based, human; conditions: 128 μg/mL, 2 h, 37 °C
Protocol: as §2

S. aureus (ATCC 12600) = experiment: microbe, parasite or virus in culture; assay type: cell-based; conditions: for MIC: Staphylococcus aureus
E. coli (ATCC 11303) = experiment: microbe, parasite or virus in culture; assay type: cell-based; conditions: for MIC: Escherichia coli
[7] = tested on: all species of Enterobacteriaceae and Staphylococcus; conditions: against all species of Enterobacteriaceae and Staphylococcus; cited from earlier work
Protocol: It is noticeable that the MIC decreases with increasing acylation length of the peptide (Table 1). The antimicrobial effect of the LF11-322 peptides against E. coli and S. aureus decreased when the MIC was tested in 4% HSA solution. This is probably due to the partial binding of AMPs to albumin.

plasmatic coagulation [8] = experiment: Activation of the clotting cascade in citrated plasma; conditions: citrated (17 mM) plasma, 128 μg/mL, 37 °C, 120 min, turbidity at 600 nm
Protocol: (§3) Plasma spiked with MES buffer without AMP was used as the negative control. […] Samples were incubated at 37 °C for 120 min. Coagulation was determined by turbidity measurement at 600 nm using a well plate reader.

plasmatic coagulation [9] = experiment: Activation of the clotting cascade in heparinized plasma; conditions: heparinized (0.5 IU/mL) plasma, 128 μg/mL, 37 °C, 120 min, turbidity at 600 nm
Protocol: as §3

[10] = citrate plasma, 37 °C, 60 min, turbidity 600 nm, fibrinogen and D-Dimer

## CCCCCCCCCCCCCC(=O)N1CCC[C@H]1C(=O)N[C@@H](Cc1ccccc1)C(=O)N[C@@H](Cc1c[nH]c2ccccc12)C(=O)N[C@@H](CCCNC(=N)N)C(=O)N[C@H](C(=O)N[C@@H](CCCNC(=N)N)C(=O)N[C@H](C(=O)N[C@@H](CCCNC(=N)N)C(=O)N[C@@H](CCCNC(=N)N)C(N)=O)[C@@H](C)CC)[C@@H](C)CC [LF11-322-C14] (Myristoyl-PFWRIRIRR-NH2)
Human leukocytes
  Percentage of dead leukocytes: 21 ± 16%
Erythrocyte membranes [1]; pH 7.4
  Free Hemoglobin, RBC in PBS, 8 μg/mL: 12.9 ± 1.2 mg/dL
  Free Hemoglobin, RBC in PBS, 32 μg/mL: 31.8 ± 3.14 mg/dL
Platelets [2]
  Platelet count in citrate anticoagulated PRP vs control (in words): significantly reduce the platelet count
Erythrocyte membranes [3]
  Free Hemoglobin, BLOOD, 8 μg/mL: 2.9 ± 3.4 mg/dL
  Free Hemoglobin, BLOOD, 32 μg/mL: 5.4 ± 3.2 mg/dL
  Free Hemoglobin, BLOOD, 128 μg/mL: 2.9 ± 4.2 mg/dL
Platelets [4]
  Platelet count in heparinized PRP vs control (in words): no significant difference in platelet count
Plasmatic coagulation [5]
  Peptide concentration that triggers clotting of citrate plasma: ≥ 32 µg/mL
Platelets [6]
  Platelet morphology by SEM, citrate anticoagulated PRP (in words): hardly any intact platelets left
S. aureus (ATCC 12600); ATCC 12600, pH 7.4
  Minimal Inhibitory Concentration, S. aureus, PBS: 8 µg/mL
E. coli (ATCC 11303); ATCC 11303, pH 7.4
  Minimal Inhibitory Concentration, E. coli, PBS: 64 µg/mL

## O=C(O)c1cn(C2CC2)c2cc(N3CCNCC3)c(F)cc2c1=O [Ciprofloxacin, reference compound]
[7]
  MIC90: < 1 µg/mL
S. aureus (ATCC 12600); ATCC12600, pH 7.4, read-out: Minimal Inhibitory Concentration, S. aureus, PBS
  MIC: < 0.0625 µg/mL
S. aureus (ATCC 12600); ATCC12600, read-out: Minimal Inhibitory Concentration, S. aureus, PBS + heparin
  MIC: < 0.0625 µg/mL
E. coli (ATCC 11303); ATCC11303, pH 7.4, read-out: Minimal Inhibitory Concentration, E. coli, PBS
  MIC: < 0.0625 µg/mL
E. coli (ATCC 11303); ATCC11303, read-out: Minimal Inhibitory Concentration, E. coli, PBS + heparin
  MIC: < 0.0625 µg/mL

## CC[C@H](C)[C@H](NC(=O)[C@H](CCCCN)NC(=O)[C@H](CCC(=O)O)NC(=O)[C@H](CCCCN)NC(=O)[C@H](CO)NC(=O)[C@H](CCCCN)NC(=O)[C@H](CCCNC(=N)N)NC(=O)[C@H](Cc1ccccc1)NC(=O)[C@H](Cc1ccccc1)NC(=O)[C@H](CC(=O)O)NC(=O)CNC(=O)[C@H](CC(C)C)NC(=O)[C@@H](N)CC(C)C)C(=O)NCC(=O)N[C@@H](CCCCN)C(=O)N[C@@H](CCC(=O)O)C(=O)N[C@@H](Cc1ccccc1)C(=O)N[C@@H](CCCCN)C(=O)N[C@@H](CCCNC(=N)N)C(=O)N[C@H](C(=O)N[C@H](C(=O)N[C@@H](CCC(N)=O)C(=O)N[C@@H](CCCNC(=N)N)C(=O)N[C@H](C(=O)N[C@@H](CCCCN)C(=O)N[C@@H](CC(=O)O)C(=O)N[C@@H](Cc1ccccc1)C(=O)N[C@@H](CC(C)C)C(=O)N[C@@H](CCCNC(=N)N)C(=O)N[C@@H](CC(N)=O)C(=O)N[C@@H](CC(C)C)C(=O)N[C@H](C(=O)N1CCC[C@H]1C(=O)N[C@@H](CCCNC(=N)N)C(=O)N[C@H](C(=O)N[C@@H](CCC(=O)O)C(=O)N[C@@H](CO)C(=O)O)[C@@H](C)O)C(C)C)[C@@H](C)CC)C(C)C)[C@@H](C)CC [LL-37, reference compound]
Plasmatic coagulation [8]
  Plasma clot, Citrated Plasma: −
Erythrocyte membranes [1]; blood cells suspended in PBS 10 mM pH 7.4, highest peptide conc., 60 min 37 °C, Kahn method, n = 3, control 8.5 ± 4.7
  Free Hemoglobin, RBC in PBS, 128 μg/mL: 68.4 ± 15.0 mg/dL
Erythrocyte membranes [1]; blood cells suspended in PBS 10 mM pH 7.4, peptide conc. 8 μg/mL, 60 min 37 °C, Kahn method, n = 3, control 8.5 ± 4.7
  Free Hemoglobin, RBC in PBS, 8 μg/mL: 2.4 ± 3.6 mg/dL
Erythrocyte membranes [1]; blood cells suspended in PBS 10 mM pH 7.4, peptide conc. 32 μg/mL, 60 min 37 °C, Kahn method, n = 3, control 8.5 ± 4.7
  Free Hemoglobin, RBC in PBS, 32 μg/mL: 44.8 ± 17.7 mg/dL
Erythrocyte membranes [3]; citrate anticoagulated whole blood, peptide conc. 8 μg/mL, 60 min 37 °C, Kahn method, n = 3, control 3.7 ± 1.9
  Free Hemoglobin, BLOOD, 8 μg/mL: 1.1 ± 0.7 mg/dL
Erythrocyte membranes [3]; citrate anticoagulated whole blood, peptide conc. 32 μg/mL, 60 min 37 °C, Kahn method, n = 3, control 3.7 ± 1.9
  Free Hemoglobin, BLOOD, 32 μg/mL: 9.4 ± 13.4 mg/dL
Erythrocyte membranes [3]; citrate anticoagulated whole blood, peptide conc. 128 μg/mL, 60 min 37 °C, Kahn method, n = 3, control 3.7 ± 1.9
  Free Hemoglobin, BLOOD, 128 μg/mL: 2.6 ± 3.7 mg/dL
Plasmatic coagulation [5]; [10]
  Clotting of citrate plasma, Peptide Concentration 8 μg/mL: −
  Clotting of citrate plasma, Peptide Concentration 32 μg/mL: −
  Clotting of citrate plasma, Peptide Concentration 128 μg/mL: −
  Clotting of citrate plasma, Peptide Concentration 256 μg/mL: −
Plasmatic coagulation [9]
  Plasma clot, Heparin Plasma: −
